Laboratory results published in patent US11116799B2, “Generation of uniform hepatocytes from human embryonic stem cells by inhibiting TGF-beta and methods of maintaining hepatic cultures” (Wisconsin Alumni Research Foundation, priority 2016, dated 2021).

Legend:
[1] = test system: H9-ALB-GFP/AFP-Tomato (dual clone 1) derived hepatocytes; test: RNA-Seq of ES-derived hepatocytes treated with Stauprimide; assay type: cell-based, human; design: HNF4A RNA-Seq expression / ADH4 RNA-Seq expression / BAAT RNA-Seq expression / SERPINC1 RNA-Seq expression / SERPINA1 RNA-Seq expression / ALB RNA-Seq expression / AFP RNA-Seq expression / UGT1A9 RNA-Seq expression / UGT1A1 RNA-Seq expression / UGT1A6 RNA-Seq expression: unit not given here; conditions: dual clone 1 ES-derived hepatocytes (CDI), 72 hrs
Experimental: The effects of Stauprimide in maturation of ES-derived hepatocytes was validated by RNA-Seq as described above. Briefly, the H9-ALB-GFP/AFP-Tomato (dual clone 1) were differentiated to a pure population of hepatocytes by CDI (Madison, Wis.) and treated with Stauprimide for 72 hours. […] Thus, Stauprimide is able to increase expression of mature hepatocyte genes and reduce the expression of the fetal marker AFP.

[2] = test system: hepatocytes; test: Robotic compound screen for albumin and AFP expression in hepatocytes; assay type: cell-based
Experimental: A robotic screen was performed to determine compounds that increase expression of albumin in hepatocytes as an indicator that the compounds play a role in hepatocyte maturation. 1200 compounds were screened and 400 compounds analyzed for their effects on hepatocytes with regard to the levels of albumin and fetal marker AFP.

[3] = test system: HepG2 cells; test: HepG2 viability / cell growth (cell counting by dye exclusion); assay type: cell-based, human; conditions: HepG2, 72 hours, compared to vehicle control
Experimental: CYP2C9 and 3A4 metabolism were measured using CYP450 Glo assay (Promega). In short, substrates were added to the media and incubated for 72 hours and the amount of metabolites generated were measured by adding the detection reagent and quantifying the luminescence in a Tecan® plate reader. Background was measured by incubating the substrates for 72 hours in the same media without cells. Cell counting for proliferation assay was carried out by dye exclusion in an automated cell counter (ThermoFisher).

[4] = test system: primary human hepatocytes (PHHs); test: RNA-Seq gene expression in MAPK inhibitor treated primary human hepatocytes; assay type: cell-based
Experimental: […]. […] […].
For small RNA-Seq profiling, hepatocytes from Hu8082 were used; for de-differentiation time course and let-7c transduction, hepatocytes from Hu4260, Hu8135, Hu4279 and Hu8137 were used. For both experiments, cells from all 4 donors were mixed in equal numbers after assessment of viability. For small molecule treatments, batch Hu4260 was used.
RNA-Seq was performed by LM-Seq (Illumina).
For small molecule treatments, batch Hu4260 was used.
. To ascertain that the increase in metabolic enzymes took place through specific MAPK inhibition, PHHs were treated with a second MAPK inhibitor, PD0325901, for 72 hours, followed by RNA-Seq analysis (Supplementary Table 4). […].

[5] = test system: H9-ALB-GFP/AFP-Tomato (dual clone 1); test: Gene expression of hepatocytes differentiated from ES cells with 3 or 18 days of Activin A; assay type: cell-based, human; design: scale not given here; conditions: dual clone 1 hepatocytes, unsorted
Experimental: The H9-ALB-GFP/AFP-Tomato (dual clone 1) were differentiated to hepatocytes using the protocol depicted in FIG. 4. Either 3 day or 18 days of Activin A treatment was used with the rest of the protocol being the same. The cells were not sorted and differentiated for 18 and 33 days (for 3 and 18 day DE respectively).
ES cells were cultured in E8 medium (Reference 2) and were differentiated to hepatocytes following a previously published protocol (Reference 1) with modifications. Briefly, at approximately 50% confluency the ES cells were singularized by accutase and seeded on matrigel coated plate in E6 medium containing 100 ng/ml Activin A (Sigma). They were cultured in the Activin A medium for seven days. From day 8 to day 12 the cells were treated with 25 ng/ml FGF4 (R&D Systems) along with 20 ng/ml BMP2 in E6. During days 13 through 17 the cells were treated with 20 ng/ml HGF (R&D Systems) and 10 ng/ml Oncostatin M (R&D Systems) in E6. Finally, the cells were cultured in E6 containing 0.1 μM Dexamethasone (Sigma) from day 18 to day 22. From day 8 onwards, SB431542 and DAPT were added to the medium to inhibit TGFB and NOTCH respectively at 10 μM final concentration.

[6] = test system: primary mouse hepatocytes; test: RNA-Seq gene expression in primary mouse hepatocytes treated with kinase inhibitors; conditions: 10 μM, 72 hours
Text: The next step was to determine if the PI3/Akt and MAPK pathways are involved in maintenance of hepatocyte maturation. We investigated whether small molecule inhibition of these pathways would mimic let-7's action and reduce the loss of mature function of hepatocytes in culture after removal from their microenvironment. […] Then, expression of the top ten important metabolic enzymes (CYPs, UGTs and transporters) by RNA-Seq with uncultured fresh hepatocytes and control vehicle hepatocytes treated for 72 hours was compared.
Hepatocytes from 6 black mice livers were isolated by perfusion following standard protocol and cultured on Matrigel coated plates in hepatocyte growth medium (Promocell). Whole developing livers from 6 black mice were used for RNA isolation with Trizol for let-7c measurements.
Total RNA (including microRNA) from all cells, which were not mentioned otherwise, were isolated using RNAeasy Plus Kit […] following manufacturers protocol. RNA-Seq was performed by LM-Seq (Illumina). MicroRNAs were sequenced using Illumina's small RNA sequencing kit. Expression of let-7 and U6 snoRNA were measured by quantitative PCR using ABI's kit. Let-7c expression levels were normalized by U6 snoRNA expression (RQ or relative quantity values, error bars representing standard error, RQ min and RQ max).
Multiple batches of cryopreserved induction qualified human hepatocytes (each batch being from one donor) were purchased from Life Technologies and cultured on Matrigel coated plates in hepatocyte growth medium (PromoCell). For dedifferentiation studies, hepatocytes from batches Hu4260, Hu8135, Hu4279 and Hu8137 were used after mixing equal number of live cells. For small molecule treatments, batch Hu4260 was used. Mouse hepatocytes were isolated from Black 6 mice livers by perfusion following standard protocol and cultured on Matrigel coated plates in hepatocyte growth medium (Promocell).
Total RNA were isolated using RNAeasy Plus Kit (Qiagen) following manufacturers protocol and qualified with the Life Technologies Qubit fluorometer and Agilent Bioanalyzer. […] Final indexed cDNA libraries were pooled and sequenced on an Illumina HiSeq 2500. Base-calling and demultiplexing were performed using Casava (v1.8.2). Sequences were filtered and trimmed to remove low quality reads, adapters, and other sequencing artifacts. The remaining reads were aligned to a reference database comprising only RefSeq-validated transcripts (i.e., assigned an “NM_” accession). Mouse samples were aligned to the mm10 assembly, and human samples were aligned to the hg19 assembly. […] Reads with more than 200 alignments were excluded from further analysis. […] All RNA-seq results have been deposited at NCBI's GEO under Accession No. GSE94353.
The inventors next investigated whether the MAPK and PI3/Akt pathways contributed to the dedifferentiation of hepatocytes. […] Rapamycin was included as a control, which is an inhibitor of the mTOR pathway, a serine/threonine kinase involved in cell signaling not identified as a key pathway in our analysis.

[7] = primary human hepatocytes, treated 72 hours
[8] = 3 day Activin A (DE), differentiated 18 days
[9] = 18 day Activin A (DE), differentiated 33 days

CO[C@@H]1[C@H](N(C)C(=O)c2ccccc2)C[C@H]2O[C@]1(C)n1c3ccccc3c3c4c(c5c6ccccc6n2c5c31)C(=O)NC4=O [Stauprimide]
ADH4 RNA-Seq expression [1]: 12.82 | AFP RNA-Seq expression [1]: 2485.61 | ALB RNA-Seq expression [1]: 8513.48 | BAAT RNA-Seq expression [1]: 10.4 | CYP2D6 RNA-Seq expression [1]: 0 TPM | CYP2E1 RNA-Seq expression [1]: 9.6 TPM | HNF4A RNA-Seq expression [1]: 25.97 | SERPINA1 RNA-Seq expression [1]: 10030.14 | SERPINC1 RNA-Seq expression [1]: 42.45 | UGT1A1 RNA-Seq expression [1]: 322.35 | UGT1A6 RNA-Seq expression [1]: 411.32 | UGT1A9 RNA-Seq expression [1]: 47.42 | CYP1A1 RNA-Seq expression ([1]; in TPM): 47.04 | CYP2C9 RNA-Seq expression ([1]; in TPM): 19.63 | expression of AFB [2]: did not increase expression | expression of albumin [2]: increased expression

O=C(NOC[C@H](O)CO)c1ccc(F)c(F)c1Nc1ccc(I)cc1F [PD0325901]
HepG2 viability / cell growth [3]: increased cell death and growth arrest | HBV receptor expression ([4]; PHHs treated 72 hours): upregulated | AFP gene expression [4, 7]: 7.07 transcripts per million | ALB gene expression [4, 7]: 1293.62 transcripts per million | CD81 gene expression [4, 7]: 388.31 transcripts per million | CYP1A2 gene expression [4, 7]: 1.87 transcripts per million | CYP1B1 gene expression [4, 7]: 3.56 transcripts per million | CYP2C9 gene expression [4, 7]: 73.61 transcripts per million | CYP2D6 gene expression [4, 7]: 1.24 transcripts per million | CYP2E1 gene expression [4, 7]: 4.94 transcripts per million | CYP3A4 gene expression [4, 7]: 22.44 transcripts per million | SLCO1B1 gene expression [4, 7]: 151.48 transcripts per million | SLCO1B3 gene expression [4, 7]: 7.24 transcripts per million | UGT1A1 gene expression [4, 7]: 69.02 transcripts per million | UGT1A6 gene expression [4, 7]: 1337.30 transcripts per million | UGT1A9 gene expression [4, 7]: 87.51 transcripts per million

Activing A: Activin A, growth factor used to differentiate pluripotent stem cells to definitive endoderm
AFP gene expression [5, 8]: 1663.62 | ALB gene expression [5, 8]: 600.43 | CYP1A1 gene expression [5, 8]: 23.85 | CYP2C9 gene expression [5, 8]: 2.26 | CYP2D6 gene expression [5, 8]: 2.24 | CYP2E1 gene expression [5, 8]: 0 | CYP3A4 gene expression [5, 8]: 0.92 | U6T1A1 gene expression [5, 8]: 3.86 | UGT1A6 gene expression [5, 8]: 1.75 | AFP gene expression [5, 9]: 8635.2 | ALB gene expression [5, 9]: 5129.36 | CYP1A1 gene expression [5, 9]: 80.48 | CYP2C9 gene expression [5, 9]: 76.46 | CYP2D6 gene expression [5, 9]: 3.51 | CYP2E1 gene expression [5, 9]: 0.4 | CYP3A4 gene expression [5, 9]: 33.64 | U6T1A1 gene expression [5, 9]: 66.36 | UGT1A6 gene expression [5, 9]: 23.94

O=c1cc(N2CCOCC2)oc2c(-c3ccccc3)cccc12 [LY294002]
ABCC2 gene expression [6]: 232.34 transcripts per million | CYP1A2 gene expression [6]: 80.54 transcripts per million | CYP2C9 gene expression [6]: 1332.65 transcripts per million | CYP2E1 gene expression [6]: 57.37 transcripts per million | CYP3A11 gene expression [6]: 1409.71 transcripts per million | CYP3A25 gene expression [6]: 61.42 transcripts per million | UGT1A6A gene expression [6]: 48.21 transcripts per million | UGT1A9 gene expression [6]: 15.27 transcripts per million | UGT1A10 gene expression [6]: 0.86 transcripts per million | UGT2B5 gene expression [6]: 196.44 transcripts per million
